From PMC9607644, “Glycoconjugation of Quinoline Derivatives Using the C-6 Position in Sugars as a Strategy for Improving the Selectivity and Cytotoxicity of Functionalized Compounds” (Molecules, 2022)
Marks after values point to notes of the source that are not given here.

Assays:
[1] = tested on: HCT-116 cells; experiment: MTT cytotoxicity assay, HCT-116; type: cell-based, human; settings: for IC50: Homo sapiens, HCT-116; for IC50 / growth inhibitory activity in words, HCT-116: MTT
Description: (§1) An in vitro biological test package was performed for the obtained derivatives. […] The MTT test is a colorimetric method for detecting proliferating cells. It is based on the ability of the enzyme mitochondrial dehydrogenase to convert yellow tetrazole salt (MTT) into purple formazan. The amount of the product formed in the reaction, determined spectrophotometrically, is proportional to the number of living cells.
(§2) The in vitro cytotoxicity of the test compounds was determined by the MTT (3-[4,5–dimethylthiazol-2-yl]-2,5-diphenyltetrazolium bromide) test (Sigma-Aldrich, Taufkirchen, Germany) according to the manufacturer’s protocol. At the beginning, for each cell line were determined the optimal seeding densities to ensure exponential growth throughout the experimental period. The confluent layer of cells were trypsinized, collected, and suspended in a growth medium. […] Then, the culture medium was replaced with solutions of different concentrations of test compounds in a fresh medium. Stock solutions of test compounds were prepared in DMSO and diluted to final concentrations with appropriate volumes of the growth medium directly before the experiment. Cells suspended in a medium supplemented with 0.5% DMSO (the amount of DMSO necessary to dissolve the highest dose of the respective sample) were used as a control of the experiment. […] The compound-treated cells were incubated for a further 24–72 h. […] After this time, the MTT dye was carefully removed, and the acquired formazan crystals were dissolved by DMSO (Chempur, Piekary Śląskie, Poland). The proliferation was evaluated by measuring the formazan product’s absorbance at a wavelength of 570 nm with a microplate spectrophotometer (Epoch, BioTek, Winooski, VT, USA). All experiments were conducted in triplicate with four technical repeats for each tested concentration. Results were expressed as the percentage change in the viability of the test cells relative to the untreated control cells and calculated as the inhibitory concentration (IC50). […] The results are expressed as the average value ± standard deviation (SD).

[2] = tested on: MCF-7 cells; experiment: MTT cytotoxicity assay, MCF-7; type: cell-based, human; settings: for IC50: Homo sapiens, MCF7, incubation time 72 h; for IC50 / growth inhibitory activity in words, MCF-7: MTT; for Selectivity Index (SI) MCF-7: IC50 NHDF-Neo / IC50 MCF-7, 72 h incubation
Description: as §1, §2

[3] = tested on: NHDF-Neo cells; experiment: MTT cytotoxicity assay, NHDF-Neo; type: cell-based; settings: Homo sapiens, incubation time 72 h
Description: An in vitro biological test package was performed for the obtained derivatives. All newly synthesized compounds were assessed for their cytotoxic activity against human cell lines with increased GLUT expression: the colon cancer cell line (HCT-116) and the breast cancer cell line (MCF-7), as well as on normal human dermal fibroblasts cells (NHDF-Neo), using the MTT assay (3-(4,5-dimethylthiazol-2-yl)-2,5-diphenyltetrazolium bromide). The MTT test is a colorimetric method for detecting proliferating cells. It is based on the ability of the enzyme mitochondrial dehydrogenase to convert yellow tetrazole salt (MTT) into purple formazan. The amount of the product formed in the reaction, determined spectrophotometrically, is proportional to the number of living cells. The antiproliferative activity was expressed as the concentration that caused 50% inhibition of the growth of the population of cells treated with the test compounds relative to the control cells (inhibitory concentration activity—IC50). Table 1 and Table 2 summarize the IC50 values calculated for all tested compounds.
The in vitro cytotoxicity of the test compounds was determined by the MTT (3-[4,5–dimethylthiazol-2-yl]-2,5-diphenyltetrazolium bromide) test (Sigma-Aldrich, Taufkirchen, Germany) according to the manufacturer’s protocol. At the beginning, for each cell line were determined the optimal seeding densities to ensure exponential growth throughout the experimental period. The confluent layer of cells were trypsinized, collected, and suspended in a growth medium. The cell suspension were then seeded into 96-well plates at a density of 1 × 10^4 or 2 × 10^3 (HCT-116) or 5 × 10^3 (MCF-7, NHDF-Neo) per well and incubated for 24 h under standard conditions (5% CO2, 37 °C). Then, the culture medium was replaced with solutions of different concentrations of test compounds in a fresh medium. Stock solutions of test compounds were prepared in DMSO and diluted to final concentrations with appropriate volumes of the growth medium directly before the experiment. Cells suspended in a medium supplemented with 0.5% DMSO (the amount of DMSO necessary to dissolve the highest dose of the respective sample) were used as a control of the experiment. […] The compound-treated cells were incubated for a further 24–72 h. After that, the medium was removed and the MTT solution (50 µL, 0.5 mg/mL in PBS) was added into each well and incubated for another 3 h under standard conditions (5% CO2, 37 °C). After this time, the MTT dye was carefully removed, and the acquired formazan crystals were dissolved by DMSO (Chempur, Piekary Śląskie, Poland). The proliferation was evaluated by measuring the formazan product’s absorbance at a wavelength of 570 nm with a microplate spectrophotometer (Epoch, BioTek, Winooski, VT, USA). All experiments were conducted in triplicate with four technical repeats for each tested concentration. Results were expressed as the percentage change in the viability of the test cells relative to the untreated control cells and calculated as the inhibitory concentration (IC50). The IC50 values were defined as the drug concentration that was necessary to reduce cell proliferation to 50% of the untreated control and this parameter was calculated using CalcuSyn software (version 2.0, Biosoft, Cambridge, UK). The results are expressed as the average value ± standard deviation (SD).

[4] = IC50 NHDF-Neo / IC50 HCT-116, HCT-116 incubation time 24 h
[5] = IC50 NHDF-Neo / IC50 HCT-116, 72 h incubation

SMILES | IC50 ([1]; incubation time 24 h) [µM] | IC50 [2] [µM] | other results
CC(=O)OC1O[C@H](CN=[N+]=[N-])[C@@H](OC(C)=O)[C@H](OC(C)=O)[C@H]1OC(C)=O (stereo partly drawn) [Compound 5, 1,2,3,4-tetra-O-acetyl-6-azido-6-deoxy-D-glucopyranose] | > 800 | 201 ± 2.09 | –
[N-]=[N+]=NC[C@H]1OC(O)[C@H](O)[C@@H](O)[C@@H]1O (stereo partly drawn) [Compound 6, 6-azido-6-deoxy-D-glucopyranose] | > 800 | > 800 | –
[N-]=[N+]=NC[C@H]1OC(O)[C@H](O)[C@@H](O)[C@H]1O (stereo partly drawn) [Compound 11, 6-azido-6-deoxy-D-galactopyranose] | > 800 | > 800 | –
CC(=O)OC1O[C@H](CN=[N+]=[N-])[C@H](OC(C)=O)[C@H](OC(C)=O)[C@H]1OC(C)=O (stereo partly drawn) [Compound 12, 1,2,3,4-tetra-O-acetyl-6-azido-6-deoxy-D-galactopyranose] | > 800 | 641.2 ± 1.79 | –
C#CCNC(=O)[C@H]1O[C@@H](OC(C)=O)[C@H](OC(C)=O)[C@@H](OC(C)=O)[C@@H]1OC(C)=O [Compound 15, 1,2,3,4-tetra-O-acetyl-N-(prop-2-yn-1-yl)-β-D-glucopyranuronic acid amide] | 584 ± 9.39 | 714 ± 15.7 | –
C#CCNC(=O)[C@H]1OC(O)[C@H](O)[C@@H](O)[C@@H]1O (stereo partly drawn) [Compound 16, N-(prop-2-yn-1-yl)-D-glucopyranuronic acid amide] | > 800 | > 800 | –
[N-]=[N+]=NC[C@H]1O[C@H](O[C@H]2O[C@H](CN=[N+]=[N-])[C@@H](O)[C@H](O)[C@H]2O)[C@H](O)[C@@H](O)[C@@H]1O [Compound 20, 6,6′-diazido-6,6′-dideoxy-D-trehalose] | > 800 | > 800 | melting point: 118 °C
CC(=O)OC1O[C@H](Cn2cc(CO)nn2)[C@@H](OC(C)=O)[C@H](OC(C)=O)[C@H]1OC(C)=O (stereo partly drawn) [Compound 29] | > 800 | > 800 | –
OCc1cn(C[C@H]2OC(O)[C@H](O)[C@@H](O)[C@@H]2O)nn1 (stereo partly drawn) [Compound 30] | > 800 | > 800 | –
CC(=O)OC1O[C@H](Cn2cc(CO)nn2)[C@H](OC(C)=O)[C@H](OC(C)=O)[C@H]1OC(C)=O (stereo partly drawn) [Compound 31] | > 800 | > 800 | –
OCc1cn(C[C@H]2OC(O)[C@H](O)[C@@H](O)[C@H]2O)nn1 (stereo partly drawn) [Compound 32] | > 800 | > 800 | –
CC(=O)OC1O[C@H](C(=O)NCc2cn(CCO)nn2)[C@@H](OC(C)=O)[C@H](OC(C)=O)[C@H]1OC(C)=O (stereo partly drawn) [Compound 33] | > 800 | > 800 | –
O=C(NCc1cn(CCO)nn1)[C@H]1OC(O)[C@H](O)[C@@H](O)[C@@H]1O (stereo partly drawn) [Compound 34] | > 800 | > 800 | –
CC(=O)O[C@@H]1[C@@H](OC(C)=O)[C@@H](O[C@H]2O[C@H](Cn3cc(CO)nn3)[C@@H](OC(C)=O)[C@H](OC(C)=O)[C@H]2OC(C)=O)O[C@H](Cn2cc(CO)nn2)[C@H]1OC(C)=O [Compound 35] | > 800 | > 800 | –
OCc1cn(C[C@H]2O[C@H](O[C@H]3O[C@H](Cn4cc(CO)nn4)[C@@H](O)[C@H](O)[C@H]3O)[C@H](O)[C@@H](O)[C@@H]2O)nn1 [Compound 36] | > 800 | > 800 | –
CC(=O)OC1O[C@H](Cn2cc(COc3cccc4cccnc34)nn2)[C@H](OC(C)=O)[C@H](OC(C)=O)[C@H]1OC(C)=O (stereo partly drawn) [Compound B-1] | 75.1 ± 1.3 | 36.67 ± 0.03 | IC50 [3]: 81.42 ± 0.52 µM; Selectivity Index (SI) HCT-116 [1, 4]: 1.08 ^b; Selectivity Index (SI) MCF-7 [2]: 2.22
OC1O[C@H](Cn2cc(COc3cccc4cccnc34)nn2)[C@H](O)[C@H](O)[C@H]1O (stereo partly drawn) [Compound B-2] | 293 ± 8 | 156 ± 7.4 | IC50 [3]: 271.6 ± 0.35 µM; Selectivity Index (SI) HCT-116 [1, 4]: 0.93 ^b; Selectivity Index (SI) MCF-7 [2]: 1.74
CC(=O)O[C@@H]1O[C@H](C(=O)NCc2cn(CCOc3cccc4cccnc34)nn2)[C@@H](OC(C)=O)[C@H](OC(C)=O)[C@H]1OC(C)=O [Compound C-1] | 173 ± 6.68 | 224 ± 7.34 | IC50 [3]: 215 ± 3.1 µM; IC50 ([1]; incubation time 72 h): 81.5 ± 3.36 µM; Selectivity Index (SI) HCT-116 [1, 5]: 2.64; growth inhibitory activity in words, HCT-116 [1]: did not show significant ability to inhibit cell growth; Selectivity Index (SI) MCF-7 [2]: 0.96; growth inhibitory activity in words, MCF-7 [2]: did not show significant ability to inhibit cell growth
CC(=O)O[C@@H]1O[C@H](C(=O)NCc2cn(CCCOc3cccc4cccnc34)nn2)[C@@H](OC(C)=O)[C@H](OC(C)=O)[C@H]1OC(C)=O [Compound C-2] | 94.2 ± 1.48 | 157 ± 7.86 | IC50 [3]: 318.5 ± 3.09 µM; IC50 ([1]; incubation time 72 h): 62.35 ± 0.32 µM; Selectivity Index (SI) HCT-116 [1, 5]: 5.11; growth inhibitory activity in words, HCT-116 [1]: did not show significant ability to inhibit cell growth; Selectivity Index (SI) MCF-7 [2]: 2.03; growth inhibitory activity in words, MCF-7 [2]: did not show significant ability to inhibit cell growth
O=C(NCc1cn(CCCOc2cccc3cccnc23)nn1)[C@H]1OC(O)[C@H](O)[C@@H](O)[C@@H]1O (stereo partly drawn) [Compound C-3] | > 800 | 706.6 ± 2.87 | IC50 [3]: > 800 µM; IC50 ([1]; incubation time 72 h): 767 ± 2.39 µM; growth inhibitory activity in words, HCT-116 [1]: inactive; growth inhibitory activity in words, MCF-7 [2]: inactive
CC(=O)O[C@@H]1[C@@H](OC(C)=O)[C@@H](O[C@H]2O[C@H](Cn3cc(COc4cccc5cccnc45)nn3)[C@@H](OC(C)=O)[C@H](OC(C)=O)[C@H]2OC(C)=O)O[C@H](Cn2cc(COc3cccc4cccnc34)nn2)[C@H]1OC(C)=O [Compound D-1] | 46.3 ± 3.12 | 30.7 ± 0.99 | IC50 [3]: 34.5 ± 0.39 µM; IC50 ([1]; incubation time 72 h): 26.3 ± 0.72 µM; Selectivity Index (SI) HCT-116 [1, 5]: 1.31; Selectivity Index (SI) MCF-7 [2]: 1.12
